According to patent publication US9278941B2, “Azole derivative and uses thereof” (Kureha Corporation, priority 2011, dated 2016):
Where two headings read alike, the source gives them in different places.

Columns and labels:
[1] = tested on: powdery mildew; assay: Powdery mildew control effect on wheat, foliar spray treatment; type: in vivo; conditions: wettable powder foliar spray 1,000 L/ha, seven days after inoculation
[2] = tested on: Microdochium nivale; assay: Antifungal test for pathogens (PDA plate), M.n; type: cell-based; conditions: PDA plate medium
[3] = tested on: Rhizopus oryzae; assay: Antifungal test for pathogens (PDA plate), R.o; type: cell-based; conditions: PDA plate medium
[4] = tested on: Gaeumannomyces graminis; assay: Antifungal test for pathogens (PDA plate), G.g; type: cell-based; conditions: PDA plate medium
[5] = tested on: Gibberella fujikuroi; assay: Antifungal test for pathogens (PDA plate), G.f; type: cell-based; conditions: PDA plate medium
[6] = tested on: Rhizoctonia solani; assay: Antifungal test for pathogens (PDA plate), R.s; type: cell-based; conditions: PDA plate medium
[7] = tested on: Botrytis cinerea; assay: Gray mold disease control effect on cucumbers, foliar spray treatment; type: in vivo; conditions: cucumber gray mold, wettable powder foliar spray 1,000 L/ha, four days after inoculation
[8] = tested on: Penicillium italicum; assay: Antifungal test for pathogens (PDA plate), P.i; type: cell-based; conditions: PDA plate medium
[9] = tested on: wheat brown rust; assay: Brown rust control effect on wheat, seed treatment; type: in vivo; conditions: sixteen days after inoculation
Description: A pot test was performed to evaluate the brown rust controlling effect on wheat using seed treatment. Compound (1(−)) or Compound (1(+)) was dissolved in DMSO so the treatment amount was 20 g ai/100 kg seeds or 2 g ai/100 kg seeds, and the solution was smeared on wheat seeds in a vial, and eight wheat seeds were seeded in a 80 cm^2 pot. These were irrigated from below in a greenhouse. Fifteen days after seeding, the seedlings were inoculated with wheat brown rust and then kept for two days in a box. These were again irrigated from below in a greenhouse.

[10] = tested on: Wheat leaf blight (Septoria tritici); assay: Antifungal test against wheat leaf blight (PDA plate); conditions: 19 days at 25° C.
Description: Wheat leaf blight (Septoria tritici) cultured beforehand in a medium plate was punched out with a 4 mm-diameter cork borer, and inoculated in the plate media containing the agent. After inoculation, they were cultured for 19 days at 25° C., and the growth of the fungus was determined by the diameter of the growth. The growth rate of the fungus in the plate media containing the agent was compared to the growth rate of the fungus in the plate medium not containing the agent, and the filamentous fungi inhibition rate was determined using the following equation. In the equation, R is the filamentous fungi inhibition rate (%), dc is the diameter of the fungal growth in the untreated plate media, and dt is the diameter of the fungal growth in the treated plate media. R=100(dc−dt)/dc

[11] = tested on: Glomerella cingurata; assay: Antifungal test for pathogens (PDA plate), G.c; type: cell-based; conditions: PDA plate medium
[12] = tested on: wheat leaf rust; assay: Rust control effect on wheat, foliar spray treatment; type: in vivo; conditions: wettable powder foliar spray 1,000 L/ha, twelve days after inoculation
[13] = tested on: Ustilago nuda; assay: Antifungal test for pathogens (PDA plate), U.n; type: cell-based; conditions: PDA plate medium
[14] = tested on: Pyricularia oryzae; type: cell-based; conditions: PDA plate medium
[15] = tested on: wheat leaf blight; assay: Leaf blotch control effect on wheat, foliar spray treatment; conditions: wettable powder foliar spray 1,000 L/ha, thirty days after inoculation
Description: After blow drying the sprayed leaves, the plants were sprinkled and inoculated with wheat leaf blight. Thirty days after inoculation, the morbidity of the wheat to powdery mildew was evaluated according to the criteria shown in Table 3, and the preventative value was calculated using the following equation. When the average morbidity of the sprayed plot was higher than the average morbidity of the unsprayed plot, the preventative value was 0%. Preventative value (%)=(1−(average morbidity of the sprayed plot/average morbidity of the unsprayed plot))×100.

[16] = tested on: Botrytis cinerea; assay: Antifungal test for pathogens (PDA plate), B.c; type: cell-based; conditions: PDA plate medium
[17] = tested on: Phaeosphaeria nodorum; assay: Antifungal test for pathogens (PDA plate), P.n; type: cell-based; conditions: PDA plate medium
[18] = tested on: Sclerotinia sclerotiorum; assay: Antifungal test for pathogens (PDA plate), S.s; type: cell-based; conditions: PDA plate medium
[19] = tested on: various pathogenic filamentous fungi other than wheat leaf blight; type: cell-based; conditions: 10 mg/L, PDA plate; all 13 fungi: wheat blight, barley stripe, wheat fusarium, barley loose smut, rice blast, rice sheath blight, rice bakanae, apple leaf spot, Botrytis cinerea, cucumber vine crack, citrus blue mold, sugar beet brown spot, barley cloud fungus
[20] = tested on: Rhynchosporium secalis; assay: Antifungal test for pathogens (PDA plate), R.sec; type: cell-based; conditions: PDA plate medium
[21] = tested on: wheat; assay: Phytotoxicity evaluation of growth inhibition of wheat seeds, seed treatment; type: in vivo; conditions: fifteen days after seeding, untreated 21 cm
Description: A pot test was used to perform a phytotoxicity evaluation of growth inhibition using a seed treatment. Compound (1(−)) or Compound (1(+)) was dissolved in DMSO so the treatment amount was 2 or 20 g ai/100 kg seeds, and the solution was smeared on wheat seeds in a vial, and eight wheat seeds were seeded in a 80 cm^2 pot. These were irrigated from below in a greenhouse. Fifteen days after seeding, the length of the wheat was evaluated.

[22] = tested on: Pseudocercoporella herpotrichoides; assay: Antifungal test for pathogens (PDA plate), P.h; type: cell-based; conditions: PDA plate medium
[23] = tested on: Pyrenophora graminea; assay: Antifungal test for pathogens (PDA plate), P.g; type: cell-based; conditions: PDA plate medium
[24] = tested on: Fusarium oxysporum; assay: Antifungal test for pathogens (PDA plate), F.c; type: cell-based; conditions: PDA plate medium
[25] = tested on: Cercospora beticola; assay: Antifungal test for pathogens (PDA plate), C.b; type: cell-based; conditions: PDA plate medium
[26] = tested on: Fusarium graminearum; type: cell-based; conditions: PDA plate medium
[27] = tested on: Alternaria alternata; assay: Antifungal test for pathogens (PDA plate), A.m; type: cell-based; conditions: PDA plate medium

COC(=O)[C@]1(C)CC[C@H](Cc2ccc(Cl)cc2)[C@@]1(O)Cn1cncn1 (relative stereo) [Compound (1(+)), (1,2-cis, 1,3-cis)-3-(4-chlorobenzyl)-2-hydroxy-1-methyl-2-(1H-1,2,4-triazole-1-ylmethyl)cyclopentanecarboxylic acid methyl ester]
Preventative Value (%) ([1]; sample conc. 12.5 mg/L): 24% | Preventative Value (%) ([1]; sample conc. 50.0 mg/L): 94% | Antifungal Index of Each Strain M.n ([2]; Sample Conc. 1.25 mg/L): 1 (<60%) | Antifungal Index of Each Strain M.n ([2]; Sample Conc. 2.5 mg/L): 1 (<60%) | Antifungal Index of Each Strain M.n ([2]; Sample Conc. 5 mg/L): 1 (<60%) | Antifungal Index of Each Strain R.o ([3]; Sample Conc. 1.25 mg/L): 1 (<60%) | Antifungal Index of Each Strain R.o ([3]; Sample Conc. 2.5 mg/L): 1 (<60%) | Antifungal Index of Each Strain R.o ([3]; Sample Conc. 5 mg/L): 1 (<60%) | Antifungal Index of Each Strain G.g ([4]; Sample Conc. 1.25 mg/L): 1 (<60%) | Antifungal Index of Each Strain G.g ([4]; Sample Conc. 2.5 mg/L): 2 (70%-60%) | Antifungal Index of Each Strain G.g ([4]; Sample Conc. 5 mg/L): 4 (90%-80%) | Antifungal Index of Each Strain G.f ([5]; Sample Conc. 1.25 mg/L): 1 (<60%) | Antifungal Index of Each Strain G.f ([5]; Sample Conc. 2.5 mg/L): 2 (70%-60%) | Antifungal Index of Each Strain G.f ([5]; Sample Conc. 5 mg/L): 3 (80%-70%) | Antifungal Index of Each Strain R.s ([6]; Sample Conc. 1.25 mg/L): 2 (70%-60%) | Antifungal Index of Each Strain R.s ([6]; Sample Conc. 2.5 mg/L): 2 (70%-60%) | Antifungal Index of Each Strain R.s ([6]; Sample Conc. 5 mg/L): 4 (90%-80%) | Preventative Value (%) ([7]; sample conc. 12.5 mg/L): 0% | Preventative Value (%) ([7]; sample conc. 50.0 mg/L): 17.6% | Antifungal Index of Each Strain P.i ([8]; Sample Conc. 0.08 mg/L): 1 (<60%) | Antifungal Index of Each Strain P.i ([8]; Sample Conc. 0.16 mg/L): 1 (<60%) | Antifungal Index of Each Strain P.i ([8]; Sample Conc. 0.31 mg/L): 1 (<60%) | Antifungal Index of Each Strain P.i ([8]; Sample Conc. 0.63 mg/L): 2 (70%-60%) | Preventative Value (%) ([9]; seed treatment 2 g ai/100 kg seeds): 0% | Preventative Value (%) ([9]; seed treatment 20 g ai/100 kg seeds): 5% | Antifungal Index ([10]; sample conc. 0.31 mg/L): 3 (80%-70%) | Antifungal Index ([10]; sample conc. 0.63 mg/L): 3 (80%-70%) | Antifungal Index ([10]; sample conc. 1.25 mg/L): 5 (>90%) | Antifungal Index of Each Strain G.c ([11]; Sample Conc. 1.25 mg/L): 1 (<60%) | Antifungal Index of Each Strain G.c ([11]; Sample Conc. 2.5 mg/L): 1 (<60%) | Antifungal Index of Each Strain G.c ([11]; Sample Conc. 5 mg/L): 2 (70%-60%) | Preventative Value (%) ([12]; sample conc. 0.8 mg/L): 0% | Preventative Value (%) ([12]; sample conc. 3.1 mg/L): 0% | Antifungal Index of Each Strain U.n ([13]; Sample Conc. 1.25 mg/L): 2 (70%-60%) | Antifungal Index of Each Strain U.n ([13]; Sample Conc. 2.5 mg/L): 3 (80%-70%) | Antifungal Index of Each Strain U.n ([13]; Sample Conc. 5 mg/L): 4 (90%-80%) | Antifungal Index of Each Strain P.o ([14]; Sample Conc. 1.25 mg/L): 1 (<60%) | Antifungal Index of Each Strain P.o ([14]; Sample Conc. 2.5 mg/L): 2 (70%-60%) | Antifungal Index of Each Strain P.o ([14]; Sample Conc. 5 mg/L): 5 (>90%) | Preventative Value (%) ([15]; sample conc. 12.5 mg/L): 67.5% | Preventative Value (%) ([15]; sample conc. 50 mg/L): 77.5% | Antifungal Index of Each Strain B.c ([16]; Sample Conc. 1.25 mg/L): 1 (<60%) | Antifungal Index of Each Strain B.c ([16]; Sample Conc. 2.5 mg/L): 1 (<60%) | Antifungal Index of Each Strain B.c ([16]; Sample Conc. 5 mg/L): 4 (90%-80%) | Antifungal Index of Each Strain P.n ([17]; Sample Conc. 1.25 mg/L): 2 (70%-60%) | Antifungal Index of Each Strain P.n ([17]; Sample Conc. 2.5 mg/L): 2 (70%-60%) | Antifungal Index of Each Strain P.n ([17]; Sample Conc. 5 mg/L): 2 (70%-60%) | Antifungal Index of Each Strain S.s ([18]; Sample Conc. 1.25 mg/L): 1 (<60%) | Antifungal Index of Each Strain S.s ([18]; Sample Conc. 2.5 mg/L): 1 (<60%) | Antifungal Index of Each Strain S.s ([18]; Sample Conc. 5 mg/L): 1 (<60%) | filamentous fungi inhibition rate R [19]: ≥ 80% | Antifungal Index of Each Strain R.sec ([20]; Sample Conc. 0.08 mg/L): 3 (80%-70%) | Antifungal Index of Each Strain R.sec ([20]; Sample Conc. 0.16 mg/L): 5 (>90%) | Antifungal Index of Each Strain R.sec ([20]; Sample Conc. 0.31 mg/L): 5 (>90%) | Antifungal Index of Each Strain R.sec ([20]; Sample Conc. 0.63 mg/L): 5 (>90%) | Average Plant Length (cm) ([21]; wheat seed treatment 2 g ai/100 kg seeds): 22 cm | Average Plant Length (cm) ([21]; wheat seed treatment 20 g ai/100 kg seeds): 14 cm | Antifungal Index of Each Strain P.h ([22]; Sample Conc. 1.25 mg/L): 1 (<60%) | Antifungal Index of Each Strain P.h ([22]; Sample Conc. 2.5 mg/L): 1 (<60%) | Antifungal Index of Each Strain P.h ([22]; Sample Conc. 5 mg/L): 1 (<60%) | Antifungal Index of Each Strain P.g ([23]; Sample Conc. 0.08 mg/L): 1 (<60%) | Antifungal Index of Each Strain P.g ([23]; Sample Conc. 0.16 mg/L): 1 (<60%) | Antifungal Index of Each Strain P.g ([23]; Sample Conc. 0.31 mg/L): 4 (90%-80%) | Antifungal Index of Each Strain P.g ([23]; Sample Conc. 0.63 mg/L): 5 (>90%) | Antifungal Index of Each Strain F.c ([24]; Sample Conc. 1.25 mg/L): 2 (70%-60%) | Antifungal Index of Each Strain F.c ([24]; Sample Conc. 2.5 mg/L): 3 (80%-70%) | Antifungal Index of Each Strain F.c ([24]; Sample Conc. 5 mg/L): 4 (90%-80%) | Antifungal Index of Each Strain C.b ([25]; Sample Conc. 0.08 mg/L): 1 (<60%) | Antifungal Index of Each Strain C.b ([25]; Sample Conc. 0.16 mg/L): 2 (70%-60%) | Antifungal Index of Each Strain C.b ([25]; Sample Conc. 0.31 mg/L): 3 (80%-70%) | Antifungal Index of Each Strain C.b ([25]; Sample Conc. 0.63 mg/L): 4 (90%-80%) | Antifungal Index of Each Strain F.g ([26]; Sample Conc. 1.25 mg/L): 1 (<60%) | Antifungal Index of Each Strain F.g ([26]; Sample Conc. 2.5 mg/L): 1 (<60%) | Antifungal Index of Each Strain F.g ([26]; Sample Conc. 5 mg/L): 2 (70%-60%) | Antifungal Index of Each Strain A.m ([27]; Sample Conc. 1.25 mg/L): 1 (<60%) | Antifungal Index of Each Strain A.m ([27]; Sample Conc. 2.5 mg/L): 2 (70%-60%) | Antifungal Index of Each Strain A.m ([27]; Sample Conc. 5 mg/L): 3 (80%-70%)
